{"source": "patent US20250282798A1", "about": "“HETEROARYL-SUBSTITUTED BICYCLIC COMPOUND AND USE THEREOF” (Medshine Discovery Inc., priority 2022, published 2025)", "key": {"human GLK": {"molecular_target": "human GLK (Homo sapiens (Human), UniProt Q8IVH8)", "sequence (Q8IVH8 whole entry)": "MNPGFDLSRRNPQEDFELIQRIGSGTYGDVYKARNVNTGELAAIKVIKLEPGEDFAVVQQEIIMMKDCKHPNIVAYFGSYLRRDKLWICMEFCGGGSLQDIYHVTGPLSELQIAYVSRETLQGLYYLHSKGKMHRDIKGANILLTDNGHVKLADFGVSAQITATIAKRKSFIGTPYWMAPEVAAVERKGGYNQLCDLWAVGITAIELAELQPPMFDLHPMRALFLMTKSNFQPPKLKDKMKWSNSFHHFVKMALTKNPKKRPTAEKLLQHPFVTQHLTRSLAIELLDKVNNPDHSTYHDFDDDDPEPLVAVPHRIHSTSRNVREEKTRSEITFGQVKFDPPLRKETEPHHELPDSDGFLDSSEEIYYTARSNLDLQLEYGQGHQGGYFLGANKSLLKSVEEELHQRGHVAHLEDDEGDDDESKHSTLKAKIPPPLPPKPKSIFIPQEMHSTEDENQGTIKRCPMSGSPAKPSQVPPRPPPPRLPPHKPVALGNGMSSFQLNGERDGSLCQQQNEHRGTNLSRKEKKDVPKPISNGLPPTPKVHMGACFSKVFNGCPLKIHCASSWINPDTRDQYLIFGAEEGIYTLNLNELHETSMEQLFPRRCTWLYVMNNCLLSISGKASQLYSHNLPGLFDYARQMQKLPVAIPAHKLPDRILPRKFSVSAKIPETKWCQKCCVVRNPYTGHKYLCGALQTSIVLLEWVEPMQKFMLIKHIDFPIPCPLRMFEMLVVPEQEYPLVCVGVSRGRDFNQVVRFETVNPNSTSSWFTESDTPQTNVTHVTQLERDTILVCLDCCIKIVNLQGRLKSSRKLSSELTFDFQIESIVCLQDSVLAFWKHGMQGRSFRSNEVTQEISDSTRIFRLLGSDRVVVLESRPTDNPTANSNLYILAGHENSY", "assay": "Kinase activity assay using ADP-Glo method, GLK", "format": "biochemical", "conditions": "GLK enzyme concentration 8 nM; ATP 20 μM", "procedure": "The IC50 value was assayed by the kinase activity assay using ADP-Glo method to evaluate the inhibitory ability of a test compound on human GLK.\nEnzyme buffer conditions: 50 mM Hepes (pH 7.5), 10 mM MgCl2, 1 mM EGTA, 0.01% Brij35, 2 mM DTT.\nPreparation of the mixture of kinase and substrate: the concentration of GLK in the reaction solution was 8 nM, the concentration of ATP was […], and the concentration of MBP was 0.05 mg/mL.\nAssay steps: A compound was diluted 4-fold with DMSO in a dilution plate, with a final initial concentration of […] and 10 concentration gradient points. The compound was diluted 50-fold into the kinase reaction buffer, and the mixture was shaken on a shaker for 20 minutes. The kinase was prepared with the enzyme reaction buffer. 2 μL of kinase was added to each well of a reaction plate. 1 μL of the diluted compound in the buffer was added to each well. The plate was sealed with a sealing film, centrifuged at 1000 g for 30 seconds, and placed at room temperature for 10 minutes. The mixed solution of ATP/MBP was prepared with the enzyme reaction buffer. 2 μL of the mixed solution of ATP/MBP was added to the reaction plate. The plate was sealed with a sealing film, and centrifuged at 1000 g for 30 seconds. The mixture in the plate was reacted at room temperature for 60 minutes. 4 μL of ADP-Glo was transferred to the 384 reaction plate, and centrifuged at 1000 rpm/min for 1 min. The plate was incubated at 25° C. for 40 min. 8 μL of detection solution was transferred to the 384 reaction plate, and centrifuged at 1000 rpm/min for 1 min. The plate was incubated at 25° C. for 40 min. The RLU (relative luminescence unit) signal was read with a BMG microplate reader, and the signal intensity was used to characterize the activity of the kinase.\nThe kinase activity data were expressed as the comparison of the kinase activity of a group with a test compound and the kinase activity of the blank group (containing only DMSO). The IC50 value was obtained by curve fitting using Prism software (GraphPad7.0)."}, "[1]": {"assay": "Pharmacokinetic evaluation in mice", "format": "in vivo, female Balb/c mice", "procedure": "Assay procedure: 10% DMSO+20% PEG400+70% (30% SBE-P3-CD aqueous solution) (the trifluoroacetate of compound 4, the trifluoroacetate of compound 9) or 10% SBE-β-CD aqueous solution (the trifluoroacetate of compound 24-3) was injected into female Balb/c mice (overnight fasting, 7-9 weeks old) via the tail vein. Female Balb/c mice (overnight fasting, 7-9 weeks old) were gavaged with 10% DMSO+20% PEG400+70% (30% SBE-β-CD aqueous solution (the trifluoroacetate of compound 4, the trifluoroacetate of compound 9) or 10% SBE-P3-CD aqueous solution (the trifluoroacetate of compound 24-3) at dosages shown in Table 7. About 30 μL of blood of the two groups of animals was collected from the jugular vein at 0.0833, 0.25, 0.5, 1.0, 2.0, 4.0, 8.0, and 24 hours after the administration, and from the tail vein at 0.25, 0.5, 1.0, 2.0, 4.0, 8.0, and 24 hours after the administration, respectively, and placed in an anticoagulant tube with EDTA-K2 added. The tube was centrifuged to separate the plasma. The plasma concentration was assayed by LC-MS/MS. The relevant pharmacokinetic parameters were calculated with WinNonlin™ Version 6.3 (Pharsight, Mountain View, CA) pharmacokinetic software using the non-compartmental linear logarithmic trapezoidal method."}, "[2]": {"conditions": "female, Balb/c, mouse, plasma, IV 2 mg/kg"}, "[3]": {"conditions": "female, Balb/c, mouse, plasma, PO 75 mg/kg"}}}
{"molecule": "CN1Cc2nc(Nc3ccc(-c4cnc5cc(F)ccn45)c4c3C(=O)NC4)ccc2N2CCOCC2C1", "note": "(stereo not drawn) [Trifluoroacetate of compound 16]", "values": [{"measurement": "IC50", "setting": "human GLK", "result": 277, "unit": "nM"}]}
{"molecule": "O=C1NCc2c(-c3cnc4cc(F)ccn34)ccc(Nc3ccc4c(n3)OC[C@H]3COCCN43)c21", "note": "[Trifluoroacetate of compound 9]", "values": [{"measurement": "Tlast", "setting": "[1]; IV 2 mg/kg", "result": 2, "unit": "h"}, {"measurement": "Tlast", "setting": "[1]; PO 75 mg/kg", "result": 8, "unit": "h"}, {"measurement": "AUC(0-inf)", "setting": "[1]; [2]", "result": 1.95, "unit": "µM·h"}, {"measurement": "AUC(0-t)", "setting": "[1]; [2]", "result": 1.93, "unit": "µM·h"}, {"measurement": "C0", "setting": "[1]; [2]", "result": 6.06, "unit": "µM"}, {"measurement": "clearance", "setting": "[1]; [2]", "result": 36, "unit": "mL/min/kg"}, {"measurement": "half-life", "setting": "[1]; [2]", "result": 18, "unit": "min"}, {"measurement": "Vd", "setting": "[1]; female, Balb/c, mouse, plasma, IV 2 mg/kg, read-out: Vdss", "result": 0.8, "unit": "L/kg"}, {"measurement": "AUC(0-inf)", "setting": "[1]; [3]", "result": 108, "unit": "µM·h"}, {"measurement": "AUC(0-t)", "setting": "[1]; [3]", "result": 108, "unit": "µM·h"}, {"measurement": "Cmax", "setting": "[1]; [3]", "result": 39.8, "unit": "µM"}, {"measurement": "Tmax", "setting": "[1]; [3]", "result": 48, "unit": "min"}, {"measurement": "half-life", "setting": "[1]; [3]", "result": 48, "unit": "min"}, {"measurement": "bioavailability", "setting": "[1]; female, Balb/c, mouse, plasma, PO 75 mg/kg vs IV 2 mg/kg, calculated using AUC0-last", "result": 148, "unit": "%"}]}
